Holding throughout (assay): Post-emergence test experiment (greenhouse pot, spray at 2-3 leaf stage)
Holding throughout (format): in vivo
Settings in all cases: 1000 g/ha; post-emergence spray at 2-3 leaf stage; assessed after 3 weeks; fresh weight inhibition rate

One assay has as its system Abutilon theophrasti. A digest of the protocol:
(§1)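 Activity graded levels 0-5 by fresh-weight inhibition (level 5 above 85%, level 0 below 5%), assessed 3 weeks after treatment. Plants grown in greenhouse pots were sprayed post-emergence at 2-3 leaves using acetone/tween-80 solutions with methyl oleate synergist (1.5 L/ha).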

A further assay concerns Digitaria sanguinalis. A digest of the protocol:
as §1

The next assay deals with Monochoria vaginalis. A digest of the protocol: as §1
Another assay relates to Echinochloa crusgalli. In outline: as §1
The next assay deals with Galium spurium. In outline:
as §1

Take `Cc1ccccc1CSC(=O)C(C)Oc1nc(F)c(Cl)c(N)c1Cl` (stereo not shown) [Compound 218]: the “Activity level (growth inhibition rate) Abutilon theophrasti” value in the assay with Abutilon theophrasti is 5 (Level 5: the growth inhibition rate is greater than 85%). Further, the “Activity level (growth inhibition rate) Digitaria sanguinalis” value with Digitaria sanguinalis was 5 (Level 5: the growth inhibition rate is greater than 85%). For the same compound, in the assay on Monochoria vaginalis, the “Activity level (growth inhibition rate) Monochoria Vaginalis” value is recorded as 5 (Level 5: the growth inhibition rate is greater than 85%). Also, the “Activity level (growth inhibition rate) Echinochloa crusgalli” value in the assay with Echinochloa crusgalli is 5 (Level 5: the growth inhibition rate is greater than 85%). In addition, in the assay on Galium spurium, the “Activity level (growth inhibition rate) Galium spurium” value was 5 (Level 5: the growth inhibition rate is greater than 85%).
For `Cc1cccc(CSC(=O)C(C)Oc2nc(F)c(Cl)c(N)c2Cl)c1` (stereo not shown) [Compound 219], in the assay on Abutilon theophrasti, the “Activity level (growth inhibition rate) Abutilon theophrasti” value is reported as 5 (Level 5: the growth inhibition rate is greater than 85%). Besides, the “Activity level (growth inhibition rate) Digitaria sanguinalis” value with Digitaria sanguinalis is 5 (Level 5: the growth inhibition rate is greater than 85%). Also, in the assay on Monochoria vaginalis, the “Activity level (growth inhibition rate) Monochoria Vaginalis” value is recorded as 5 (Level 5: the growth inhibition rate is greater than 85%). Besides, the “Activity level (growth inhibition rate) Echinochloa crusgalli” value in the assay with Echinochloa crusgalli was 5 (Level 5: the growth inhibition rate is greater than 85%). The “Activity level (growth inhibition rate) Galium spurium” value with Galium spurium was 5 (Level 5: the growth inhibition rate is greater than 85%).
As for `Cc1ccc(CSC(=O)C(C)Oc2nc(F)c(Cl)c(N)c2Cl)cc1` (stereo not shown) [Compound 220], the “Activity level (growth inhibition rate) Abutilon theophrasti” value with Abutilon theophrasti was 5 (Level 5: the growth inhibition rate is greater than 85%). Moreover, in the assay with Digitaria sanguinalis, the “Activity level (growth inhibition rate) Digitaria sanguinalis” value is listed as 5 (Level 5: the growth inhibition rate is greater than 85%). Besides, in the assay with Monochoria vaginalis, the “Activity level (growth inhibition rate) Monochoria Vaginalis” value is reported as 5 (Level 5: the growth inhibition rate is greater than 85%). For the same compound, the “Activity level (growth inhibition rate) Echinochloa crusgalli” value with Echinochloa crusgalli is listed as 5 (Level 5: the growth inhibition rate is greater than 85%). The “Activity level (growth inhibition rate) Galium spurium” value in the assay with Galium spurium is on record as 5 (Level 5: the growth inhibition rate is greater than 85%).
With `CC(Oc1nc(F)c(Cl)c(N)c1Cl)C(=O)SCc1ccccc1F` (stereo not shown) [Compound 221], in the assay with Abutilon theophrasti, the “Activity level (growth inhibition rate) Abutilon theophrasti” value is 5 (Level 5: the growth inhibition rate is greater than 85%). The “Activity level (growth inhibition rate) Digitaria sanguinalis” value in the assay with Digitaria sanguinalis is 5 (Level 5: the growth inhibition rate is greater than 85%). Besides, the “Activity level (growth inhibition rate) Monochoria Vaginalis” value in the assay with Monochoria vaginalis was 5 (Level 5: the growth inhibition rate is greater than 85%). In the assay with Echinochloa crusgalli, the “Activity level (growth inhibition rate) Echinochloa crusgalli” value was 5 (Level 5: the growth inhibition rate is greater than 85%). Besides, in the assay with Galium spurium, the “Activity level (growth inhibition rate) Galium spurium” value is on record as 5 (Level 5: the growth inhibition rate is greater than 85%).
For the compound `CC(Oc1nc(F)c(Cl)c(N)c1Cl)C(=O)SCc1cccc(F)c1` (stereo not shown) [Compound 222], in the assay on Abutilon theophrasti, the “Activity level (growth inhibition rate) Abutilon theophrasti” value is given as 5 (Level 5: the growth inhibition rate is greater than 85%). The “Activity level (growth inhibition rate) Digitaria sanguinalis” value in the assay with Digitaria sanguinalis is given as 5 (Level 5: the growth inhibition rate is greater than 85%). In addition, the “Activity level (growth inhibition rate) Monochoria Vaginalis” value in the assay on Monochoria vaginalis is on record as 5 (Level 5: the growth inhibition rate is greater than 85%). Besides, the “Activity level (growth inhibition rate) Echinochloa crusgalli” value with Echinochloa crusgalli is 5 (Level 5: the growth inhibition rate is greater than 85%). Also, the “Activity level (growth inhibition rate) Galium spurium” value in the assay with Galium spurium is listed as 5 (Level 5: the growth inhibition rate is greater than 85%).
For `CC(Oc1nc(F)c(Cl)c(N)c1Cl)C(=O)SCc1ccc(F)cc1` (stereo not shown) [Compound 223], the “Activity level (growth inhibition rate) Abutilon theophrasti” value with Abutilon theophrasti is listed as 5 (Level 5: the growth inhibition rate is greater than 85%). In addition, the “Activity level (growth inhibition rate) Digitaria sanguinalis” value in the assay with Digitaria sanguinalis was 5 (Level 5: the growth inhibition rate is greater than 85%). The “Activity level (growth inhibition rate) Monochoria Vaginalis” value in the assay with Monochoria vaginalis is 5 (Level 5: the growth inhibition rate is greater than 85%). The “Activity level (growth inhibition rate) Echinochloa crusgalli” value with Echinochloa crusgalli is recorded as 5 (Level 5: the growth inhibition rate is greater than 85%). The “Activity level (growth inhibition rate) Galium spurium” value with Galium spurium is recorded as 5 (Level 5: the growth inhibition rate is greater than 85%).
Regarding `CC(Oc1nc(F)c(Cl)c(N)c1Cl)C(=O)SCc1ccccc1C#N` (stereo not shown) [Compound 224], in the assay with Abutilon theophrasti, the “Activity level (growth inhibition rate) Abutilon theophrasti” value is on record as 5 (Level 5: the growth inhibition rate is greater than 85%). The “Activity level (growth inhibition rate) Digitaria sanguinalis” value in the assay with Digitaria sanguinalis is recorded as 5 (Level 5: the growth inhibition rate is greater than 85%). The “Activity level (growth inhibition rate) Monochoria Vaginalis” value with Monochoria vaginalis was 5 (Level 5: the growth inhibition rate is greater than 85%). Moreover, the “Activity level (growth inhibition rate) Echinochloa crusgalli” value in the assay on Echinochloa crusgalli is 5 (Level 5: the growth inhibition rate is greater than 85%). The “Activity level (growth inhibition rate) Galium spurium” value with Galium spurium is 5 (Level 5: the growth inhibition rate is greater than 85%).
In the case of `CC(Oc1nc(F)c(Cl)c(N)c1Cl)C(=O)SCc1ccc(C#N)cc1` (stereo not shown) [Compound 225], the “Activity level (growth inhibition rate) Abutilon theophrasti” value with Abutilon theophrasti was 5 (Level 5: the growth inhibition rate is greater than 85%). In addition, the “Activity level (growth inhibition rate) Digitaria sanguinalis” value in the assay on Digitaria sanguinalis is reported as 5 (Level 5: the growth inhibition rate is greater than 85%). Besides, the “Activity level (growth inhibition rate) Monochoria Vaginalis” value in the assay with Monochoria vaginalis is listed as 5 (Level 5: the growth inhibition rate is greater than 85%). The “Activity level (growth inhibition rate) Echinochloa crusgalli” value in the assay on Echinochloa crusgalli is 5 (Level 5: the growth inhibition rate is greater than 85%). The “Activity level (growth inhibition rate) Galium spurium” value with Galium spurium is recorded as 5 (Level 5: the growth inhibition rate is greater than 85%).
Take `CC(Oc1nc(F)c(Cl)c(N)c1Cl)C(=O)SCc1cccc(C#N)c1` (stereo not shown) [Compound 226]: the “Activity level (growth inhibition rate) Abutilon theophrasti” value with Abutilon theophrasti was 5 (Level 5: the growth inhibition rate is greater than 85%). Further, in the assay on Digitaria sanguinalis, the “Activity level (growth inhibition rate) Digitaria sanguinalis” value is recorded as 5 (Level 5: the growth inhibition rate is greater than 85%). Moreover, in the assay on Monochoria vaginalis, the “Activity level (growth inhibition rate) Monochoria Vaginalis” value is reported as 5 (Level 5: the growth inhibition rate is greater than 85%). Besides, the “Activity level (growth inhibition rate) Echinochloa crusgalli” value in the assay on Echinochloa crusgalli is reported as 5 (Level 5: the growth inhibition rate is greater than 85%). Also, the “Activity level (growth inhibition rate) Galium spurium” value with Galium spurium is 5 (Level 5: the growth inhibition rate is greater than 85%).
Turning to `CC(Oc1nc(F)c(Cl)c(N)c1Cl)C(=O)SCc1ccccc1Cl` (stereo not shown) [Compound 227], the “Activity level (growth inhibition rate) Abutilon theophrasti” value in the assay on Abutilon theophrasti is listed as 5 (Level 5: the growth inhibition rate is greater than 85%). For the same compound, the “Activity level (growth inhibition rate) Digitaria sanguinalis” value in the assay on Digitaria sanguinalis is recorded as 5 (Level 5: the growth inhibition rate is greater than 85%). The “Activity level (growth inhibition rate) Monochoria Vaginalis” value in the assay with Monochoria vaginalis is listed as 5 (Level 5: the growth inhibition rate is greater than 85%). For the same compound, the “Activity level (growth inhibition rate) Echinochloa crusgalli” value in the assay on Echinochloa crusgalli was 5 (Level 5: the growth inhibition rate is greater than 85%). Also, the “Activity level (growth inhibition rate) Galium spurium” value in the assay with Galium spurium is recorded as 5 (Level 5: the growth inhibition rate is greater than 85%).
Turning to `CC(Oc1nc(F)c(Cl)c(N)c1Cl)C(=O)SCc1ccc(Cl)cc1` (stereo not shown) [Compound 228], in the assay with Abutilon theophrasti, the “Activity level (growth inhibition rate) Abutilon theophrasti” value was 5 (Level 5: the growth inhibition rate is greater than 85%). The “Activity level (growth inhibition rate) Digitaria sanguinalis” value with Digitaria sanguinalis was 5 (Level 5: the growth inhibition rate is greater than 85%). The “Activity level (growth inhibition rate) Monochoria Vaginalis” value with Monochoria vaginalis is recorded as 5 (Level 5: the growth inhibition rate is greater than 85%). The “Activity level (growth inhibition rate) Echinochloa crusgalli” value with Echinochloa crusgalli is 5 (Level 5: the growth inhibition rate is greater than 85%). In addition, the “Activity level (growth inhibition rate) Galium spurium” value in the assay with Galium spurium is given as 5 (Level 5: the growth inhibition rate is greater than 85%).

Values taken from patent US12049450B2, “Pyridyloxy-carboxylate derivative and preparation method therefor, herbicidal composition, and use” (Qingdao Kingagroot Chemical Compound Co., Ltd., priority 2018, dated 2024).
